Reference: patent publication US20230014445A1, “ALLOSTERIC CHROMENONE INHIBITORS OF PHOSPHOINOSITIDE 3-KINASE (PI3K) FOR THE TREATMENT OF DISEASE” (Petra Pharma Corporation, priority 2021, published 2023)

What was measured:
[1] = molecular target: T1, human full length PIK3KA Wild-type (p110α/p85α complex) (Homo sapiens, UniProt P42336); experiment: PI3K-Alpha Kinase (PIK3CA) biochemical activity, wild-type (ADP-Glo); details: 20 uM ATP
T1 construct: Recombinant, catalytically active human full length PIK3KA Wild-type and H1047R mutant were purchased; 6xHis (N); purchased EMD Millipore Sigma 14-602M
Excerpt: (§1) PI3K-Alpha Kinase (PIK3CA) Activity, Wild-Type and H1047R Mutant and Determining IC50 Values for Inhibitors
(§2) Recombinant, catalytically active human full length PIK3KA Wild-type and H1047R mutant were purchased as 1:1 complex of N-terminal 6×his tagged p110α (catalytic) and untagged p85α, (regulatory subunit) from EMD Millipore Sigma (cat. no. 14-602M and 14-792M, respectively). PIP2diC8 (Avanti Polar Lipids Inc., cat. no. 850185) or Soy PI (Avanti Polar Lipids Inc., cat. No. 840044P) was used as lipid substrate. PIP2diC8 or PI lyophilized powder was dissolved in milliQ water to a concentration of 1 mM just before use. 10 mM stock compounds in DMSO were serially diluted 1:3 to generate a 10-point curve and plated using an acoustic liquid handler system (Echo 550 series instrument, Labcyte). A 10× intermediate compound plate (200 uM starting compound concentration and 10% DMSO) was prepared before starting the reaction. A typical reaction mixture (50 uL) comprised 40 mM HEPES buffer, pH 7.4, 25 mM MgCl2, 0.01% v/v triton-X-100, 1% v/v DMSO, 20 mM NaCl, 1-5 nM WT or H1047R PI3K protein, 20 uM ATP, and 50 uM PIP2diC8 or Soy PI. 1% DMSO buffer alone without test compound was employed as MAX control (full activity in the absence of any inhibitor), and no enzyme control was used to determine the level of background Adenosine 5′-diphosphate (ADP) (MIN control). First, Wild-type (WT) and H1047R mutant protein in kinase buffer with all components except ATP were incubated with or without compound at 27° C. for 1 h. After the pre-incubation, the reaction was initiated by the addition of […] (20 uM final concentration). The reaction was allowed to proceed until about 10% conversion of ATP (2 uM ADP) at 27° C. After that time, 5 uL of reaction was mixed with 5 uL of ADP-Kinase Glo Reagent (ADP-Glo Kinase assay kit, Promega cat. no. V9102) supplemented with MgCl2 10 mM to stop the reaction and deplete the remaining ATP for 40 min at room temperature. Then, 10 uL of Kinase Detection Reagent (ADP-Glo Kinase assay kit, Promega cat. no. V9102) was added to simultaneously convert ADP to ATP and allow the newly synthesized ATP to be measured using a luciferase/luciferin reaction. After 30 min at room temperature the light generated was measured using a luminometer (EnVision plate reader, Perkin Elmer). Process data through Genedata-Screener tool. Relative IC50 values are determined using luminescence units by calculating percent inhibition with respect to on-plate “MIN” and “MAX” controls. Data was analyzed using a 4-parameter nonlinear logistic equation (four-parameter logistic concentration-response curve):
(§3) Y=bot+[(top−bot)/1+(x/IC50)slope]
(§4) where Y=% inhibition, X=concentration yielding y % inhibition, Bottom=minimum value of y attained by curve, Top=maximum value of y attained by curve and Slope=steepness of curve at IC50.
(§5) % Inh=[(median Max−x/median Max−median Min)]·100
(§6) IC50: concentration of compound that reduces a given response (ligand binding, enzyme response) by 50%. IC50 relative: concentration giving half the compound's maximum response.
(§7) For IC50 values shown in Table A, “A” means IC50<0.5 μM; “B” means IC50 ranging between 0.5 μM and 1.0 μM; “C” means IC50 ranging between 1 μM and 5 μM; “D” means IC50 ranging between 5 μM and 10 μM; “E” means IC50>10 μM.

[2] = molecular target: T2, human full length PIK3KA H1047R mutant (p110α/p85α complex) (Homo sapiens, UniProt P42336, H1047R); experiment: PI3K-Alpha Kinase (PIK3CA) biochemical activity, H1047R mutant (ADP-Glo); details: 20 uM ATP
T2 construct: Recombinant, catalytically active human full length PIK3KA Wild-type and H1047R mutant were purchased; 6xHis (N); purchased EMD Millipore Sigma 14-792M
T2 sequence (P42336 whole entry H1047R): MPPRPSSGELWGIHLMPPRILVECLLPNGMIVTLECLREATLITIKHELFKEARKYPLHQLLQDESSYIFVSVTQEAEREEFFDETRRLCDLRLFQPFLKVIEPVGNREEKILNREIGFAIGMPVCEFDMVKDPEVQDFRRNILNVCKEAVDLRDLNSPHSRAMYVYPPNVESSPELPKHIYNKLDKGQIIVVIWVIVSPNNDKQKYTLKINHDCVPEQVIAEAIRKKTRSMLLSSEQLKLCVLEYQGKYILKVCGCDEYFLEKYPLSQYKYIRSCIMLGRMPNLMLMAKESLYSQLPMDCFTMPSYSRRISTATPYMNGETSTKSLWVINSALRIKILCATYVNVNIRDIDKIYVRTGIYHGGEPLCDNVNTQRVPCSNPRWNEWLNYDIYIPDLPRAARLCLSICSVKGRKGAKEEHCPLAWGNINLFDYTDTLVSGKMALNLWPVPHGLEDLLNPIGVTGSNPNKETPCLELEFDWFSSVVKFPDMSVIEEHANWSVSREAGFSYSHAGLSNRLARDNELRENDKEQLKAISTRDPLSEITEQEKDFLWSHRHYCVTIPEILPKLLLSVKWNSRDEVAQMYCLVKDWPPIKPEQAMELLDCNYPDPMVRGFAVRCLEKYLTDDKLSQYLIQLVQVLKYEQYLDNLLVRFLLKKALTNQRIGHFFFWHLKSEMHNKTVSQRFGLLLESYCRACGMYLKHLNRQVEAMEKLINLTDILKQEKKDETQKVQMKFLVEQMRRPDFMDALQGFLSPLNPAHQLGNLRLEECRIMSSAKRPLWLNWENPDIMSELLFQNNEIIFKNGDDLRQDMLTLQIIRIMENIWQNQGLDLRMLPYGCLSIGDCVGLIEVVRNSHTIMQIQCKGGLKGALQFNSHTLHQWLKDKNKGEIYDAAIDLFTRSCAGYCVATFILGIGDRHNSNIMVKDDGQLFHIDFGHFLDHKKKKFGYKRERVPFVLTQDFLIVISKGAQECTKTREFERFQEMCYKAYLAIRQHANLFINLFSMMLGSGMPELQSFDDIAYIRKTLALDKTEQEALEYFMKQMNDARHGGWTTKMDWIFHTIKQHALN
T2 sequence (P27986 whole entry partner): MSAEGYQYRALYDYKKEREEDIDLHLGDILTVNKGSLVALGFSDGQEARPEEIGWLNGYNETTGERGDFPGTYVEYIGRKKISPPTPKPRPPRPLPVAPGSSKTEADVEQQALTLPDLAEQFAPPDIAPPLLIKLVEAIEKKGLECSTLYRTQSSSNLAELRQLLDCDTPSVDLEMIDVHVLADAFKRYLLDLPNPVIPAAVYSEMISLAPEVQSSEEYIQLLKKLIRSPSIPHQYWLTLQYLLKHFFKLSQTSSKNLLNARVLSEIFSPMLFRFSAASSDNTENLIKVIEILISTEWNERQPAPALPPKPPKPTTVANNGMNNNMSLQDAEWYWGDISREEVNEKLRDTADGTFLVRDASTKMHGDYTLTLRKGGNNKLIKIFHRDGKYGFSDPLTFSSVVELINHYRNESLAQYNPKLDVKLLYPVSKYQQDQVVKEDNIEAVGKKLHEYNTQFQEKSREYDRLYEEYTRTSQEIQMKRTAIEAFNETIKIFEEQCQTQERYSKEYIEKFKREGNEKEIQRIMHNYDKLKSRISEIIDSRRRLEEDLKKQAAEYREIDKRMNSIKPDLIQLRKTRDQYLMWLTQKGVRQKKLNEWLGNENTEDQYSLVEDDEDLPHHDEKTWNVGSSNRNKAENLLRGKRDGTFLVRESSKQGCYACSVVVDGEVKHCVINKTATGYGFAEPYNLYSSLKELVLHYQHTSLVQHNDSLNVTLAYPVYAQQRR
Excerpt: as §1, §2, §3, §4, §5, §6, §7

SMILES | IC50 ([1]; PIP2diC8 lipid substrate) | IC50 ([2]; PIP2diC8 lipid substrate) | IC50 ([1]; Soy PI lipid substrate) | IC50 ([2]; Soy PI lipid substrate)
Cc1cc(C(C)Nc2ccccc2C(=O)O)c2oc(-c3ccc(OC(C)C)nc3)cc(=O)c2c1 (single isomer, unassigned; isomer 2) [Example 31, 2-[1-[2-(6-Isopropoxy-3-pyridyl)-6-methyl-4-oxo-chromen-8-yl]ethylamino]benzoic acid, Isomer 2] | 1 to 5 µM | < 0.5 µM | – | –
COc1cccc(-n2cc(-c3cc(=O)c4cc(C)cc(C(C)Nc5ccccc5C(=O)O)c4o3)nn2)c1 (single isomer, unassigned; isomer 2) [Example 98, 2-[1-2-[1-(3-Methoxyphenyl)triazol-4-yl]-6-methyl-4-oxo-chromen-8-yl]ethylamino]benzoic acid, Isomer 2] | – | – | 1 to 5 µM | < 0.5 µM
Cc1cc(C(C)Nc2cccc(F)c2C(=O)O)c2oc(-c3ccccn3)cc(=O)c2c1 (stereo not shown) [Example 100, 2-Fluoro-6-[1-[6-methyl-4-oxo-2-(2-pyridyl)chromen-8-yl]ethylamino]benzoic acid 2,2,2-trifluoroacetic acid] | – | – | > 10 µM | < 0.5 µM
COC(=O)c1ccccc1NC(C)c1cc(C)cc2c(=O)cc(-c3c[nH]c(=O)cn3)oc12 (single isomer, unassigned; isomer 2) [Example 56, Methyl 2-[1-[6-methyl-4-oxo-2-(6-oxo-1H-pyrazin-3-yl)chromen-8-yl]ethylamino]benzoate, Isomer 2] | – | – | > 10 µM | 1 to 5 µM
Cc1cc(C(C)Nc2ccccc2C(=O)O)c2oc(-c3ccc(C(F)(F)F)nc3)cc(=O)c2c1 (single isomer, unassigned; isomer 2) [Example 38, 2-[1-[6-Methyl-4-oxo-2-[6-(trifluoromethyl)-3-pyridyl]chromen-8-yl]ethylamino]benzoic acid, Isomer 2] | – | – | > 10 µM | < 0.5 µM
Cc1cc(C(C)Nc2ccccc2C(=O)O)c2oc(-c3ccccn3)cc(=O)c2c1 (single isomer, unassigned; isomer 1) [Example 17, 2-[1-[6-Methyl-4-oxo-2-(2-pyridyl)chromen-8-yl]ethylamino]benzoic acid, Isomer 1] | – | – | 1 to 5 µM | < 0.5 µM
Cc1cc(C(C)Nc2ccccc2C(=O)O)c2oc(-c3cnccn3)cc(=O)c2c1 (single isomer, unassigned; isomer 1) [Example 15, 2-[1-(6-Methyl-4-oxo-2-pyrazin-2-yl-chromen-8-yl)ethylamino]benzoic acid, Isomer 1] | 1 to 5 µM | < 0.5 µM | – | –
Cc1cc(C(C)Nc2ccccc2C(=O)O)c2oc(-c3cnn(-c4ccccc4C#N)c3)cc(=O)c2c1 (single isomer, unassigned) [Example 107] | – | – | > 10 µM | < 0.5 µM
Cc1cc(C(C)Nc2ccccc2C(=O)O)c2oc(-c3cnn(-c4cccnc4)c3)c(C)c(=O)c2c1 (single isomer, unassigned) [Example 63, 2-[1-[3,6-Dimethyl-4-oxo-2-[1-(3-pyridyl)pyrazol-4-yl]chromen-8-yl]ethylamino]benzoic acid, Isomer 1,2,2,2-trifluoroacetic acid] | – | – | 1 to 5 µM | < 0.5 µM
Cc1cc(C(C)Nc2ccccc2C(=O)O)c2oc(-c3cc(C#N)ccn3)cc(=O)c2c1 (stereo not shown) [Example 10, 2-[1-[2-(4-Cyano-2-pyridyl)-6-methyl-4-oxo-chromen-8-yl]ethylamino]benzoic acid 2,2,2-trifluoroacetic acid] | – | – | 1 to 5 µM | 0.5 to 1 µM
Cc1cc(C(C)Nc2ccccc2C(=O)O)c2oc(-c3cnn(-c4ccc(Cl)cc4)c3)cc(=O)c2c1 (single isomer, unassigned) [Example 106, 2-[1-2-[1-(4-Chiorophenyl)pyrazol-4-yl]-6-methyl-4-oxo-chromen-8-yl]ethylamino]benzoic acid, Isomer 2,2,2,2-trifluoroacetic acid] | – | – | 1 to 5 µM | < 0.5 µM
COc1ncc(-c2cc(=O)c3cc(C)cc(C(C)Nc4ccccc4C(=O)O)c3o2)cn1 (single isomer, unassigned) [Example 4, 2-[1-[2-(2-Methoxypyrimidin-5-yl)-6-methyl-4-oxo-chromen-8-yl]ethylamino]benzoic acid] | < 0.5 µM | < 0.5 µM | – | –
Cc1cc(C(C)Nc2ccccc2C(=O)O)c2oc(-c3cn[nH]c3)cc(=O)c2c1 (single isomer, unassigned) [Example 51, 2-[1-[6-Methyl-4-oxo-2-(1H-pyrazol-4-yl)chromen-8-yl]ethylamino]benzoic acid, Isomer 2,2,2,2-trifluoroacetic acid] | – | – | 1 to 5 µM | < 0.5 µM
CC(Nc1ccc(Cl)nc1C(=O)O)c1cc(C(F)(F)F)cc2c(=O)cc(-c3ccccn3)oc12 (single isomer, unassigned; isomer 1) [Example 62, 6-Chloro-3-[1-[4-oxo-2-(2-pyridyl)-6-(trifluoromethyl)chromen-8-yl]ethylamino]pyridine-2-carboxylic acid, Isomer 1] | – | – | 5 to 10 µM | < 0.5 µM
COc1ncc(-c2cc(=O)c3cc(C)cc(C(C)Nc4ccccc4C(=O)O)c3o2)cn1 (stereo not shown) [Example 2, 2-[1-[2-(2-Methoxypyrimidin-5-yl)-6-methyl-4-oxo-chromen-8-yl]ethylamino]benzoic acid 2,2,2-trifluoroacetic acid] | – | – | 5 to 10 µM | < 0.5 µM
COc1cccc(-n2cc(-c3oc4c(C(C)Nc5ccccc5C(=O)O)cc(C)cc4c(=O)c3C)cn2)c1 (single isomer, unassigned) [Example 66, 2-[1-2-[1-(3-Methoxyphenyl)pyrazol-4-yl]-3,6-dimethyl-4-oxo-chromen-8-yl]ethylamino]benzoic acid, Isomer 1,2,2,2-trifluoroacetic acid] | – | – | 0.5 to 1 µM | < 0.5 µM
Cc1cc(C(C)Nc2ccccc2C(=O)O)c2oc(-c3cnc(C)nc3)cc(=O)c2c1 (stereo not shown) [Example 13, 2-[1-[6-Methyl-2-(2-methylpyrimidin-5-yl)-4-oxo-chromen-8-yl]ethylamino]benzoic acid 2,2,2-trifluoroacetic acid] | – | – | > 10 µM | 0.5 to 1 µM
Cc1cc(C(C)Nc2ccccc2C(=O)O)c2oc(-c3ccc(S(C)(=O)=O)nc3)cc(=O)c2c1 (single isomer, unassigned; isomer 2) [Example 40, 2-[1-[6-Methyl-2-(6-methylsulfonyl-3-pyridyl)-4-oxo-chromen-8-yl]ethylamino]benzoic acid, Isomer 2] | – | – | > 10 µM | < 0.5 µM
Cc1cc(C(C)Nc2ccc(F)c(F)c2C(=O)O)c2oc(-c3cnn(-c4ccc(C#N)cc4)c3)cc(=O)c2c1 (single isomer, unassigned) [Example 95, 2,3-Difluoro-6-[1-[2-[1-(4-cyanophenyl)pyrazol-4-yl]-6-methyl-4-oxo-chromen-8-yl]ethylamino]benzoic acid, Isomer 1,2,2,2-trifluoroacetic acid] | – | – | > 10 µM | 1 to 5 µM
Cc1cc(C(C)Nc2ccccc2C(=O)O)c2oc(-c3cnn(-c4cccnc4)c3)cc(=O)c2c1 (single isomer, unassigned; isomer 2) [Example 50, 2-[1-[6-Methyl-4-oxo-2-[1-(3-pyridyl)pyrazol-4-yl]chromen-8-yl]ethylamino]benzoic acid, Isomer 2] | – | – | 1 to 5 µM | < 0.5 µM
